# Results reported in patent publication US7981875B2, “2″ oxo-voruscharin and derivatives thereof” (priority 2002, dated 2011).
# Read-outs that look alike come from different tables or passages of the source.
# Experiments:
# [1] = Maximum Tolerated Dose in healthy mice; type: in vivo; conditions: single administration in mice, healthy animals, 14 days post-injection
# Protocol: The Maximum Tolerated Dose (MTD) of a given drug is defined as the maximum amount of a drug which can be administered acutely (i.e. in one i.p., i.v., s.c. or per os single dose) to healthy animals, i.e. animals not grafted with tumors. The survival times and weights of the animals are recorded up to 14 days post-injection. Five different doses of each drug are used for the determination of the MTD index. When the MTD index is higher than 160 mg/kg (i.p. administration) the drug is usually considered to be non-toxic, and the highest dose administered to tumor-bearing mice is MTD/2=80 mg/kg. Each experimental group was composed of 3 mice for the determination of the MTD index.
# [2] = test system: U-373 MG; assay: MTT test, overall cell growth; type: cell-based, human; conditions: U-373, MTT, 72 hours of incubation
# Protocol: (§1) In order to characterize the in vitro activities of the compounds according to the invention, MTT tests were carried out. The MTT test, which is a well-known test in the art, is an indirect technique that rapidly measures, i.e. within 5 days, the effect of a given product on the overall cell growth. This test measures the number of metabolically active living cells that are able to transform the MTT product (3-(4,5-dimethylthiazol-2-yl)-2,5 diphenyl tetrazolium bromide), having a yellowish color, to the blue product formazan dye by mitochondrial reduction. The amount of formazan obtained at the end of the experiment is measured with a spectrophotometer and is directly proportional to the number of living cells. Determination of the optical density enables a quantitative measurement of the effect of the investigated compounds as compared to the control condition (untreated cells) and to compare it to other reference compound. In the following examples different compounds according to the invention were tested and compared to the reference compound being uscharin.
# (§2) Six human cancer cell lines, described in Table C, were tested in the presence of compounds according to the invention. These cell lines covered four histological cancer types, being Glioma, colon, lung and bladder cancer. The cells were allowed to grow in 96-well micro wells with a flat bottom with an amount of 100 μl of cell suspension per well in reason to 4000 cells/well depending on cell type. Each cell line was seeded in its own cell culture medium (Table C).
# (§3) After a 24-hour period of incubation at 37° C., the culture medium is replaced by 100 μl of fresh medium in which the compound to be tested has been dissolved at different required concentrations. Different compounds were tested at 10^−9 M, 5×10^−9 M, 10^−8 M, 5×10^−8 M, 10^−7 M, 5×10^−7 M, 10^−6 M, 5×10^−6 M et 10^−5 M. Each experimental condition is carried out in hexaplicate. The compounds tested are 2″ oxo-voruscharin, and compounds B, C, D, E, H and I represented in Table B above.
# (§4) After 72 hours of incubation at 37° C. with the compound (experimental conditions) or without the compound (control condition), the medium was replaced by 100 μl MTT at the concentration of 1 mg/ml dissolved in RPMI. The micro wells were subsequently incubated during 3 hours at 37° C. and centrifuged at 400 g during 10 minutes. The MTT was removed and formazan crystals formed, were dissolved in 100 μl DMSO. The micro wells were shaken for 5 minutes and read on a spectrophotometer at the wavelengths of 570 nm corresponding to the maximum formazan absorbance wavelength, and of 630 nm, which is the background noise wavelength.
# (§5) For each experimental condition, the mean OD associated with the SEM (standard error of the mean) for each condition (6 wells) was calculated. The percentage of remaining living cells in comparison with the control was calculated. Results of these experiments are represented in FIGS. 2 to 8.
# [3] = test system: A549; assay: MTT test, overall cell growth; type: cell-based, human; conditions: 72 hours of incubation
# Protocol: as §1, §2, §3, §4, §5
# [4] = test system: J82; assay: MTT test, overall cell growth; type: cell-based, human
# Protocol: as §1, §2, §3, §4, §5
# [5] = test system: HCT-15; assay: MTT test, overall cell growth; type: cell-based, human
# Protocol: as §1, §2, §3, §4, §5
# [6] = test system: LoVo; assay: MTT test, overall cell growth; type: cell-based, human; conditions: 72 hours of incubation
# Protocol: as §1, §2, §3, §4, §5
# [7] = test system: Hs683; assay: MTT test, overall cell growth; type: cell-based, human
# Protocol: as §1, §2, §3, §4, §5
# [8] = test system: HCT-15 human cancer cells; assay: Cell cycle kinetics by flow cytometry (propidium iodide); type: cell-based; design: key to Effect on cell cycle kinetics, G0/G1 / Effect on cell cycle kinetics, S / Effect on cell cycle kinetics, G2/M: n.s. means no significant; ** means highly significant; *** very highly significant
# Protocol: (§6) Cell lines were seeded in flasks (25 cm^2 area) containing 7 ml of culture medium. After 48 hours incubation at 37° C. the cell culture medium was replaced by a fresh medium in which the substance to be tested had been dissolved at the different concentrations required. Uscharin and 2″ oxo-voruscharin were tested at concentrations, which kill 50% and 30% of the cell population, represented by the IC50 and IC30 values, respectively. After 24 or 72 hours of treatment the cells were harvested in suspension, washed in Phosphate Buffer Saline (PBS) at 4° C. and permeabilized with 70% ethanol (at 4° C.) overnight at −20° C. The cells were then washed with PBS and incubated with propidium iodide solution (80 μg/ml) for 30 minutes at 37° C. and afterward at 4° C. overnight. Ribonuclease A (3% V/V) was added to the PI solution to break doubled-stranded RNA. The portrait of the cell cycle was established for each sample. Software incorporated into the flow cytometer was used to define precisely the percentage of cells in the different cell cycle phases. Each cell cycle phase was reported in terms of peak surface and calculated as a percentage. The surface of the entire cell cycle was 100%. Each experiment was carried out 3 times. The mean percentage of each different phase and the standard error of the related mean were calculated. Each cell cycle phase of a given condition was compared with the same cell cycle phase of control. The non-treated cells constituted control.
# (§7) Uscharin and 2″ oxo-voruscharin are highly toxic to human tumor cell lines. The concentrations used in the flow cytometry experiments were chosen in accordance with the MTT results (example 2). Three human cancer cell lines, Hs683, J82, and HCT-15 were tested and doses that killed 30 and 50 percent of the cells were applied to investigate whether uscharin and 2″ oxo-voruscharin promoted an accumulation in one of the cell cycle phases when the cell cultures were treated for 24 or 72 hours with increasing concentrations of the compounds. The IC50 and IC30 values for uscharin and 2″ oxo-voruscharin corresponding to the three tested cell lines are represented in Table E.
# [9] = test system: J82 human cancer cells; assay: as above; type: cell-based; design: key to Effect on cell cycle kinetics, G0/G1 / Effect on cell cycle kinetics, S / Effect on cell cycle kinetics, G2/M: n.s. means no significant; ** means highly significant; *** very highly significant
# Protocol: as §6, §7
# [10] = test system: Hs683 human cancer cells; assay: as above; type: cell-based; design: key to Effect on cell cycle kinetics, G0/G1 / Effect on cell cycle kinetics, S / Effect on cell cycle kinetics, G2/M: n.s. means no significant; ** means highly significant; *** very highly significant
# Protocol: as §6, §7
# [11] = J82, MTT, 72 hours of incubation, read-out: IC50 value
# [12] = HCT-15, MTT, 72 hours of incubation, read-out: IC50 value
# [13] = Hs683, MTT, 72 hours of incubation, read-out: IC50 value
structure (smiles),measurement,setting,value
"CC1CC2(NC(CC(=O)c3ccccc3)CS2)C2(O)OC3CC4(CO)C(CCC5C4CCC4(C)C(C6=CC(=O)OC6)CCC54O)CC3OC2O1 (single isomer, unassigned) [Compound H]",MTD index,[1],80 mg/kg
same,IC50,[2],10 to 50 nM
same,IC50,[3],1 to 5 nM
same,IC50,[4]; [11],1000 to 5000 nM
same,IC50,[5]; [12],10 to 50 nM
same,IC50,[6],10 to 50 nM
same,IC50,[7]; [13],1 to 5 nM
"CC1CC2(NC(CC(=O)c3ccccc3)CS2)C2(O)OC3CC4(CO)C(CCC5C4CCC4(C)C(C6=CC(=O)OC6)CCC54O)CC3OC2O1 (single isomer, unassigned) [Compound I]",MTD index,[1],80 mg/kg
same,IC50,[2],10 to 50 nM
same,IC50,[3],1 to 5 nM
same,IC50,[4]; [11],1000 to 5000 nM
same,IC50,[5]; [12],10 to 50 nM
same,IC50,[6],10 to 50 nM
same,IC50,[7]; [13],1 to 5 nM
CC(=O)OCC12CC3OC4(O)C(OC(C)CC45NC(=O)CS5)OC3CC1CCC1C2CCC2(C)C(C3=CC(=O)OC3)CCC12O (centres unmarked) [Compound C],MTD index,[1],> 40 mg/kg
same,IC50,[2],1000 to 5000 nM
same,IC50,[3],1000 to 5000 nM
same,IC50,[4]; [11],> 10000 nM
same,IC50,[5]; [12],1000 to 5000 nM
same,IC50,[6],1000 to 5000 nM
same,IC50,[7]; [13],1000 to 5000 nM
CC1CC2(N=CCS2)C2(O)OC3CC4(CO)C(CCC5C4CCC4(C)C(C6=CC(=O)OC6)CCC54O)CC3OC2O1 (centres unmarked) [Compound D],MTD index,[1],10 mg/kg
same,IC50,[2],10 to 50 nM
same,IC50,[3],10 to 50 nM
same,IC50,[4]; [11],5000 to 10000 nM
same,IC50,[5]; [12],10 to 50 nM
same,IC50,[6],1 to 5 nM
same,IC50,[7]; [13],1 to 5 nM
CC(=O)OCC12CC3OC4(O)C(OC(C)CC45N=CCS5)OC3CC1CCC1C2CCC2(C)C(C3=CC(=O)OC3)CCC12O (centres unmarked) [Compound E],IC50,[2],1000 to 5000 nM
same,IC50,[3],1000 to 5000 nM
same,IC50,[4]; [11],> 10000 nM
same,IC50,[5]; [12],1000 to 5000 nM
same,IC50,[6],1000 to 5000 nM
same,IC50,[7]; [13],1000 to 5000 nM
C[C@@H]1CC2(N=CCS2)C2(O)O[C@@H]3C[C@]4(C=O)C5CC[C@]6(C)[C@@H](C7=CC(=O)OC7)CC[C@]6(O)[C@@H]5CC[C@H]4C[C@H]3O[C@@H]2O1 (some centres unmarked) [uscharin],"Effect on cell cycle kinetics, G0/G1","[8]; HCT-15, 24 h",n.s.
same,"Effect on cell cycle kinetics, G2/M","[8]; HCT-15, 24 h",n.s.
same,"Effect on cell cycle kinetics, S","[8]; HCT-15, 24 h",n.s.
same,"Effect on cell cycle kinetics, G0/G1","[8]; HCT-15, 72 h",n.s.
same,"Effect on cell cycle kinetics, G2/M","[8]; HCT-15, 72 h",n.s.
same,"Effect on cell cycle kinetics, S","[8]; HCT-15, 72 h",**
same,"cell cycle, S-phase","[8]; HCT-15, 72 hours, highest concentration tested (4.3×10^−8 M uscharin, 1.2×10^−8 M 2″oxo-voruscharin)",accumulation in S-phase
same,"Effect on cell cycle kinetics, G0/G1","[9]; J82, 24 h",n.s.
same,"Effect on cell cycle kinetics, G2/M","[9]; J82, 24 h",n.s.
same,"Effect on cell cycle kinetics, S","[9]; J82, 24 h",***
same,"Effect on cell cycle kinetics, G0/G1","[9]; J82, 72 h",n.s.
same,"Effect on cell cycle kinetics, G2/M","[9]; J82, 72 h",n.s.
same,"Effect on cell cycle kinetics, S","[9]; J82, 72 h",***
same,"cell cycle, S-population","[9]; J82, independent of the concentrations applied or the timing of treatment",significant increase in the S-population
same,"cell cycle, S-phase","[10]; Hs683, 1.7×10^−7 M for 24 and 72 hours, statistically significant",accumulation of cells in S-phase
same,"cell cycle, G2/M-phase","[10]; Hs683, 1.7×10^−7 M for 24 hours",significant accumulation in G2/M-phase
same,"Effect on cell cycle kinetics, G0/G1","[10]; Hs683, 24 h",n.s.
same,"Effect on cell cycle kinetics, G2/M","[10]; Hs683, 24 h",***
same,"Effect on cell cycle kinetics, S","[10]; Hs683, 24 h",***
same,"Effect on cell cycle kinetics, G0/G1","[10]; Hs683, 72 h",n.s.
same,"Effect on cell cycle kinetics, G2/M","[10]; Hs683, 72 h",n.s.
same,"Effect on cell cycle kinetics, S","[10]; Hs683, 72 h",***
same,IC50,"[2]; Homo sapiens, U373 MG",10 to 50 nM
same,IC50,[3]; Homo sapiens,10 to 50 nM
same,IC50,"[4]; Homo sapiens, J82, MTT, 72 hours of incubation, read-out: IC50 value",5000 to 10000 nM
same,IC50,"[4]; Homo sapiens, J82, Table E, concentration used for flow cytometry, chosen in accordance with MTT results, read-out: IC50",4300 nM
same,IC30,"[4]; J82, Table E, concentration which kills 30% of the cell population",1700 nM
same,IC30,"[5]; HCT-15, Table E, concentration which kills 30% of the cell population",8.5 nM
same,IC50,"[5]; Homo sapiens, HCT-15, MTT, 72 hours of incubation, read-out: IC50 value",10 to 50 nM
same,IC50,"[5]; Homo sapiens, HCT-15, Table E, concentration used for flow cytometry, chosen in accordance with MTT results, read-out: IC50",43 nM
same,IC50,[6]; Homo sapiens,5 to 10 nM
same,IC50,"[7]; Homo sapiens, Hs 683, Hs683, MTT, 72 hours of incubation, read-out: IC50 value",1 to 5 nM
same,IC50,"[7]; Homo sapiens, Hs 683, Hs683, Table E, concentration used for flow cytometry, chosen in accordance with MTT results, read-out: IC50",170 nM
same,IC30,"[7]; Hs683, Table E, concentration which kills 30% of the cell population",43 nM
